Measurements from patent US9084828B2, “Oligomer-protein tyrosine kinase inhibitor conjugates” (Nektar Therapeutics, priority 2009, dated 2015).

Columns and labels:
Format in all cases: biochemical
ABL(Q252H) = ABL(Q252H) (Homo sapiens, UniProt P00519, Q252H); experiment: Activity against various protein tyrosine kinases: ABL(Q252H)
Method: (§1) Using techniques know those of ordinary skill in the art, compounds were tested for activity against various protein tyrosine kinases.

ABL(T315I) = ABL(T315I) (Homo sapiens, UniProt P00519, T315I); experiment: Activity against various protein tyrosine kinases: ABL(T315I)
Method: as §1

AurA = target: T1, AurA (Homo sapiens, UniProt O14965); experiment: Activity against various protein tyrosine kinases: AurA
T1 sequence (O14965 1-403): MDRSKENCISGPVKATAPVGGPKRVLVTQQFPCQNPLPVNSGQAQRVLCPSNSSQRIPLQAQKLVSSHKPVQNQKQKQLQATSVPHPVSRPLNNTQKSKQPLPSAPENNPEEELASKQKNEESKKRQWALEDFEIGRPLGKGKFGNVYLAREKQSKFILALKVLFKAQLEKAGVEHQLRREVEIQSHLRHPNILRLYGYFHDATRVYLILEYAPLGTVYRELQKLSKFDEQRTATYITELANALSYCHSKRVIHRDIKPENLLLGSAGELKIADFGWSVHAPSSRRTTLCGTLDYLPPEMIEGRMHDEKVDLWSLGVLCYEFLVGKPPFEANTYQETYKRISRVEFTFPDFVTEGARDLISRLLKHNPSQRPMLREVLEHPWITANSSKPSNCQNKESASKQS

CaMKII (gamma) = CaMKII (gamma) (Homo sapiens, UniProt Q13555); experiment: Activity against various protein tyrosine kinases: CaMKII (gamma)
CHK2 = CHK2 (Homo sapiens, UniProt O96017); experiment: Activity against various protein tyrosine kinases: CHK2
EGFR = EGFR (Homo sapiens, UniProt P00533); experiment: Activity against various protein tyrosine kinases: EGFR
Erk1 = Erk1 (Homo sapiens, UniProt P27361); experiment: Activity against various protein tyrosine kinases: Erk1
FGFR1 = FGFR1 (Homo sapiens, UniProt P11362); experiment: Activity against various protein tyrosine kinases: FGFR1
Method: as §1

IKK-beta = target: T2, IKK-beta (Homo sapiens, UniProt O14920); experiment: Activity against various protein tyrosine kinases: IKK-beta
T2 sequence (O14920 1-756): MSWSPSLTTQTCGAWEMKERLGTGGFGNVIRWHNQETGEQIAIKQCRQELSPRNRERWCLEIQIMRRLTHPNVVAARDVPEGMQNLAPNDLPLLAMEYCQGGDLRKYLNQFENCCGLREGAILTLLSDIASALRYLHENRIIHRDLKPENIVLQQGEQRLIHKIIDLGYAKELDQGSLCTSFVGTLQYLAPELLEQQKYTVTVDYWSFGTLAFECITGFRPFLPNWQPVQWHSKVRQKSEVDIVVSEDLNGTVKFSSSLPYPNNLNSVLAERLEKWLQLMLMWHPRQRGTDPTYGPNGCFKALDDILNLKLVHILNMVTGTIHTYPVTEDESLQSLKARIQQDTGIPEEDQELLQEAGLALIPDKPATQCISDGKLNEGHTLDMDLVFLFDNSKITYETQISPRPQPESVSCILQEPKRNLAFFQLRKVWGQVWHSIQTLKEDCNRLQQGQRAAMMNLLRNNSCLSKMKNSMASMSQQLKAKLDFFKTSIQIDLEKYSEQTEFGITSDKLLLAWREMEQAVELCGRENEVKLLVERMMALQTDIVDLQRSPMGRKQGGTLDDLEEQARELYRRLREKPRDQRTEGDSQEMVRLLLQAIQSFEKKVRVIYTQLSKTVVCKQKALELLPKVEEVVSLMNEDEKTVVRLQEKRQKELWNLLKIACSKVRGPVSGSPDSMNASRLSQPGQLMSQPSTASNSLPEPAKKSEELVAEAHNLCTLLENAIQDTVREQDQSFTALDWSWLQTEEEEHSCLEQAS

LYN = LYN (Homo sapiens, UniProt P07948); experiment: Activity against various protein tyrosine kinases: LYN
MAPKAPK2 = MAPKAPK2 (Homo sapiens, UniProt P49137); experiment: Activity against various protein tyrosine kinases: MAPKAPK2
MET = MET (Homo sapiens, UniProt P08581); experiment: Activity against various protein tyrosine kinases: MET
p38-delta = target: T3, p38-delta (Homo sapiens, UniProt O15264); experiment: Activity against various protein tyrosine kinases: p38-delta
T3 sequence (O15264 1-365): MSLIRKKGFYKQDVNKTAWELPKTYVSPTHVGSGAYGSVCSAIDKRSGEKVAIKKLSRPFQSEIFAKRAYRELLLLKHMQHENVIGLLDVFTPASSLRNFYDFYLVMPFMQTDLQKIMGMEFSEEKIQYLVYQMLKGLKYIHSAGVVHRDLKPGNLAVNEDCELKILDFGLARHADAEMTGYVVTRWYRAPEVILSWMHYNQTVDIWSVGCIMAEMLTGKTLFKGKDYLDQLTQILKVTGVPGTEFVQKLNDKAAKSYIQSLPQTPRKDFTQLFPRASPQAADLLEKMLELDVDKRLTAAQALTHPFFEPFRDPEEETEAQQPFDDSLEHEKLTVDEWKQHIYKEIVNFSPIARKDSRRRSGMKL

PDGFR_beta = PDGFR_beta (Homo sapiens, UniProt P09619); experiment: Activity against various protein tyrosine kinases: PDGFR_beta
PKA = PKA (Homo sapiens, UniProt P17612); experiment: Activity against various protein tyrosine kinases: PKA
RSK1 = RSK1 (Homo sapiens, UniProt Q15418); experiment: Activity against various protein tyrosine kinases: RSK1
YES = YES (Homo sapiens, UniProt P07947); experiment: Activity against various protein tyrosine kinases: YES
ABL = ABL (Homo sapiens, UniProt P00519); experiment: Activity against various protein tyrosine kinases: ABL; set-up: purchased MILLIPORE 14-529
Method: as §1

Sequence of CHK2 (O96017 whole entry, species assumed): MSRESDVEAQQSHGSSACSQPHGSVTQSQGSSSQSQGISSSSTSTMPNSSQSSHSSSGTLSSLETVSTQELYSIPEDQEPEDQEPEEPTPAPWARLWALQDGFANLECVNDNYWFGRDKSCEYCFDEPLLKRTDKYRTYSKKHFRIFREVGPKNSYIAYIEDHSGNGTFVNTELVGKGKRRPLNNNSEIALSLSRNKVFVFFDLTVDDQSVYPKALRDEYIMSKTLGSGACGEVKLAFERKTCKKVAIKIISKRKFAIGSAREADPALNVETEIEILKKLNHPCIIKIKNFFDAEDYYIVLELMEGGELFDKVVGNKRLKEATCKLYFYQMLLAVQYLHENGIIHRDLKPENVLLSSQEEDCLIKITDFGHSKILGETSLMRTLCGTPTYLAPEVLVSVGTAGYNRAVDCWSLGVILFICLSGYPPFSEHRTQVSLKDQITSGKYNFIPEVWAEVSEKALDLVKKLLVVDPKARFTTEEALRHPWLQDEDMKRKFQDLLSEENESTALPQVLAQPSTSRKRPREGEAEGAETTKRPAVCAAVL
Sequence of YES (P07947 whole entry, species assumed): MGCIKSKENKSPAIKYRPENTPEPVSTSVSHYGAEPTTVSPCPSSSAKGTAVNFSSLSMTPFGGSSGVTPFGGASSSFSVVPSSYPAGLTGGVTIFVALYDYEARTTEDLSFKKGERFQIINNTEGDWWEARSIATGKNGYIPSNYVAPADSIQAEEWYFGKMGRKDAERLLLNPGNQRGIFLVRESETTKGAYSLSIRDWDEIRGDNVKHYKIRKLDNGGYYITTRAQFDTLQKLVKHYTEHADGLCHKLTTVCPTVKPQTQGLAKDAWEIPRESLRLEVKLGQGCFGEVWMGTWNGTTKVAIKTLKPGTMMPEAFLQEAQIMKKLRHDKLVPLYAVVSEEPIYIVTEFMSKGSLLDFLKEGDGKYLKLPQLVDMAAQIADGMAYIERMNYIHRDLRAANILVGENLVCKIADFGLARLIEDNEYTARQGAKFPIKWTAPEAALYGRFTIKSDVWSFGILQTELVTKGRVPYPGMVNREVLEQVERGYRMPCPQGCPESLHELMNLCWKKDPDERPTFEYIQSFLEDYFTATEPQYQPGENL
Sequence of MET (P08581 25-1390): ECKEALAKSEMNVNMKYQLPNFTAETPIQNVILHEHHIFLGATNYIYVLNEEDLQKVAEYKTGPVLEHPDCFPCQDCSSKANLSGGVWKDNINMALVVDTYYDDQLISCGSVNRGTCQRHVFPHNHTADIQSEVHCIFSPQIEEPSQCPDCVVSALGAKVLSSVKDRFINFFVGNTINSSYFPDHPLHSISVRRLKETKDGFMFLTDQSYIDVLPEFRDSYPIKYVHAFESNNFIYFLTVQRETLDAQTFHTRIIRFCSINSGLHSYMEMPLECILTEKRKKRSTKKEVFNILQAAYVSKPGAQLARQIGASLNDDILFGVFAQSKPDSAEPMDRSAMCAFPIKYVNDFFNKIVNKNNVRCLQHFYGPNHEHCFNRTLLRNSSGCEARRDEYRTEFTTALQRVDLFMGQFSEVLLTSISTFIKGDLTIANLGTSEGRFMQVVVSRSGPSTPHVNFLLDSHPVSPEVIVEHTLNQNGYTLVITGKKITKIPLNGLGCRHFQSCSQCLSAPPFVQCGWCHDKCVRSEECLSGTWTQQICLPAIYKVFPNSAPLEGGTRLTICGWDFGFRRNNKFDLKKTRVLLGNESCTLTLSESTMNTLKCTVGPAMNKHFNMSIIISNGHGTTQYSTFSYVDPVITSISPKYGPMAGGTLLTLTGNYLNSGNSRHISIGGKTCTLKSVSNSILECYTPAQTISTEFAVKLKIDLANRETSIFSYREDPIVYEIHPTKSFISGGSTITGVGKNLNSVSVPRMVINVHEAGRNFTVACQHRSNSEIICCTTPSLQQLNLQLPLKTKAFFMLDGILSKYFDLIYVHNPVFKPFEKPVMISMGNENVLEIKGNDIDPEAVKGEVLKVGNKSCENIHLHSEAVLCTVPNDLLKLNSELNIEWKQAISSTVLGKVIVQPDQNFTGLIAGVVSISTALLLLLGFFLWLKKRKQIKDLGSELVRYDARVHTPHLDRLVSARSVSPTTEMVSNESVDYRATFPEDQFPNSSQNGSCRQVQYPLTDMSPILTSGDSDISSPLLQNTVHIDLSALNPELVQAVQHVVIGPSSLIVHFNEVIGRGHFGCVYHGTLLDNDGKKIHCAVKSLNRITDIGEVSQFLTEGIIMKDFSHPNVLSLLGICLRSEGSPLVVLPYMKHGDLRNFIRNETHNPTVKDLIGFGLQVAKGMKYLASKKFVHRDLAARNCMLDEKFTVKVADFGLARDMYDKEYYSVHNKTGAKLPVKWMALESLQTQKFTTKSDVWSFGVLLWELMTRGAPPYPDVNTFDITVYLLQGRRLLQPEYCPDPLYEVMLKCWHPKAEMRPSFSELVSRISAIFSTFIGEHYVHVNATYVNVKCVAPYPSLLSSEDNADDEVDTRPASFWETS
Sequence of PDGFR_beta (P09619 33-1106, species assumed): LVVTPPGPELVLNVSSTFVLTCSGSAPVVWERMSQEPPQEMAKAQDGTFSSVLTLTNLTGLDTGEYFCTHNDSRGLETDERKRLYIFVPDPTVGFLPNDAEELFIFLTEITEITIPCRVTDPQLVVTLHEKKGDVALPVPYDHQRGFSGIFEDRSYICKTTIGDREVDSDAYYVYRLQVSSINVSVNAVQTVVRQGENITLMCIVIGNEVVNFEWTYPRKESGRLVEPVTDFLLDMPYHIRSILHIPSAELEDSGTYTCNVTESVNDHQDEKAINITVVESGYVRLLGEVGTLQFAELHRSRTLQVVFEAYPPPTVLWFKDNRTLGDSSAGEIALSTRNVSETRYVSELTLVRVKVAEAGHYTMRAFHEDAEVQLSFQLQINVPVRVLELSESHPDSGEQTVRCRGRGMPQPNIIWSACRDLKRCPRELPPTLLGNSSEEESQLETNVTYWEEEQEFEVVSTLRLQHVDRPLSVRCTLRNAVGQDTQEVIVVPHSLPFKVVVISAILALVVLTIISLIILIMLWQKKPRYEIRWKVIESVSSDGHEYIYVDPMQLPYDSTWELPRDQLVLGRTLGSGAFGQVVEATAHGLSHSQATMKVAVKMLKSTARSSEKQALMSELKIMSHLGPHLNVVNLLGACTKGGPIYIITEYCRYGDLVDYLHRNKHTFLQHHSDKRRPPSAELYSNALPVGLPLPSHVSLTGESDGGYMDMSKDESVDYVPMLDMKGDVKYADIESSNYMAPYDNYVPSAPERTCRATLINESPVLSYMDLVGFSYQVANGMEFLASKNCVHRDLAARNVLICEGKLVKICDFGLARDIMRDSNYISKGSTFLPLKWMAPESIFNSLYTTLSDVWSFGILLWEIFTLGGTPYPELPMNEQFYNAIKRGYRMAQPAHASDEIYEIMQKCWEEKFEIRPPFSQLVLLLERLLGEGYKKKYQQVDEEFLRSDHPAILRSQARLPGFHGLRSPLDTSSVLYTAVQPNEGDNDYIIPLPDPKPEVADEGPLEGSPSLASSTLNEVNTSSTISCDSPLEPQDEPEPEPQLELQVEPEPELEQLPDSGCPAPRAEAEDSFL
Sequence of Erk1 (P27361 whole entry, species assumed): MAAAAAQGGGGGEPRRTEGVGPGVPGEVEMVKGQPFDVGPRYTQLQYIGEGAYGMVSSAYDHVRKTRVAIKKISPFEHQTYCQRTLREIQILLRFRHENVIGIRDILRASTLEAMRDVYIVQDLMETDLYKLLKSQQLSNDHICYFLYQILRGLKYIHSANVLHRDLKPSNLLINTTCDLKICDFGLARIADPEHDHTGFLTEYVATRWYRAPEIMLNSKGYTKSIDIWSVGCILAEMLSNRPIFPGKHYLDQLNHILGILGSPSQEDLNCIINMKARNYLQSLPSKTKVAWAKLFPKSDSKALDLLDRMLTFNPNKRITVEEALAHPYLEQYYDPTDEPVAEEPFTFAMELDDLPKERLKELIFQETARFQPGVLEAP
Sequence of LYN (P07948 whole entry, species assumed): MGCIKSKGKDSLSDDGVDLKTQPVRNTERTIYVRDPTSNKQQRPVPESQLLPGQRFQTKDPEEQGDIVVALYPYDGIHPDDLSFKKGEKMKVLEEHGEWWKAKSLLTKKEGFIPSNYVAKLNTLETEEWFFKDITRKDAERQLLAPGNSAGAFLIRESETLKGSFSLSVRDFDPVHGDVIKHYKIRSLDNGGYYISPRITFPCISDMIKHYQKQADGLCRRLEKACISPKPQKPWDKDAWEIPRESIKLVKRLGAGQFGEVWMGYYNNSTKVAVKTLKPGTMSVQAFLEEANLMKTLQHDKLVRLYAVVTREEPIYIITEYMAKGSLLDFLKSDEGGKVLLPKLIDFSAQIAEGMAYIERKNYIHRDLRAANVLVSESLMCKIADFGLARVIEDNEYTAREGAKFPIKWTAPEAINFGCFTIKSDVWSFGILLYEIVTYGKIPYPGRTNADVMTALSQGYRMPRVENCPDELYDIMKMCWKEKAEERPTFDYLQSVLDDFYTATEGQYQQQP
Sequence of MAPKAPK2 (P49137 whole entry, species assumed): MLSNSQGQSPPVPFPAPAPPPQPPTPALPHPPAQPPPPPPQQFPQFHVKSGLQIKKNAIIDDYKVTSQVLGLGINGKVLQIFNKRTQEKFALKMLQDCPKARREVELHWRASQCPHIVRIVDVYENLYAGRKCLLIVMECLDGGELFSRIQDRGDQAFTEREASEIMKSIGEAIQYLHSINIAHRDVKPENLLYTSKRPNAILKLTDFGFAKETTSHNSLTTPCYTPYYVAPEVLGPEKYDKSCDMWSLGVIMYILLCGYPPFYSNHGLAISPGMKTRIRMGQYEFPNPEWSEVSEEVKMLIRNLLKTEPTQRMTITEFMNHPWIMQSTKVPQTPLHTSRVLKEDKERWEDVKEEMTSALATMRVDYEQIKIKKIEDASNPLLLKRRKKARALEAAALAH

SMILES | % Inhibition at 10 nM (ABL(Q252H)) | % Inhibition at 1 μM (ABL(Q252H)) | % Inhibition at 10 nM (ABL(T315I)) | % Inhibition at 1 μM (ABL(T315I)) | % Inhibition at 10 nM (AurA) | % Inhibition at 1 μM (AurA) | % Inhibition at 10 nM (CaMKII (gamma)) | % Inhibition at 1 μM (CaMKII (gamma)) | % Inhibition at 10 nM (CHK2) | % Inhibition at 1 μM (CHK2) | % Inhibition at 10 nM (EGFR) | % Inhibition at 1 μM (EGFR) | % Inhibition at 10 nM (Erk1) | % Inhibition at 1 μM (Erk1) | % Inhibition at 10 nM (FGFR1) | % Inhibition at 1 μM (FGFR1) | % Inhibition at 10 nM (IKK-beta) | % Inhibition at 1 μM (IKK-beta) | % Inhibition at 10 nM (LYN) | % Inhibition at 1 μM (LYN) | other results
COCCOCCOCCNC(=O)OCCN1CCN(c2cc(Nc3ncc(C(=O)Nc4c(C)cccc4Cl)s3)nc(C)n2)CC1 [mPEG3-NHCOO-Dasatinib] | 98% | 99% | 1% | 36% | −7% | 19% | 2% | 2% | 1% | 11% | 3% | 76% | 3% | 2% | 11% | −3% | 0% | 1% | 99% | 99% | % Inhibition at 10 nM (MAPKAPK2): 1%; % Inhibition at 1 μM (MAPKAPK2): −1%; % Inhibition at 10 nM (MET): 3%; % Inhibition at 1 μM (MET): 0%; % Inhibition at 10 nM (p38-delta): 0%; % Inhibition at 1 μM (p38-delta): 2%; % Inhibition at 10 nM (PDGFR_beta): 48%; % Inhibition at 1 μM (PDGFR_beta): 99%; % Inhibition at 10 nM (PKA): 3%; % Inhibition at 1 μM (PKA): 0%; % Inhibition at 10 nM (RSK1): 2%; % Inhibition at 1 μM (RSK1): 0%; % Inhibition at 10 nM (YES): 100%; % Inhibition at 1 μM (YES): 100%; % Inhibition at 10 nM (ABL): 99%; % Inhibition at 1 μM (ABL): 99%
COCCOCCOCCOCCOCCOCCOCCNC(=O)OCCN1CCN(c2cc(Nc3ncc(C(=O)Nc4c(C)cccc4Cl)s3)nc(C)n2)CC1 [mPEG7-NHCOO-Dasatinib] | 99% | 99% | 4% | 26% | 3% | 28% | 6% | 3% | 2% | 1% | 6% | 62% | 3% | 4% | 2% | 3% | 2% | 2% | 98% | 98% | % Inhibition at 10 nM (MAPKAPK2): 3%; % Inhibition at 1 μM (MAPKAPK2): 7%; % Inhibition at 10 nM (MET): 1%; % Inhibition at 1 μM (MET): 1%; % Inhibition at 10 nM (p38-delta): 0%; % Inhibition at 1 μM (p38-delta): 0%; % Inhibition at 10 nM (PDGFR_beta): 60%; % Inhibition at 1 μM (PDGFR_beta): 100%; % Inhibition at 10 nM (PKA): 0%; % Inhibition at 1 μM (PKA): 2%; % Inhibition at 10 nM (RSK1): 0%; % Inhibition at 1 μM (RSK1): 4%; % Inhibition at 10 nM (YES): 100%; % Inhibition at 1 μM (YES): 102%; % Inhibition at 10 nM (ABL): 99%; % Inhibition at 1 μM (ABL): 99%
